Assays:
Assay type in all cases: cell-based
PGC-1α = PGC-1α luciferase reporter (pTA-Luc-PGC-1α plasmid) in transfected COS7 cells; conditions: treated at 5, 10, 20, 40 or 60 μg/mL, **p<0.01, FIG. 11
Experimental: To confirm an effect of increasing an expression level of PGC-1α by treatment of COS7 cells with a Chrysanthemum extract, COS7 cells (ATCC) were transfected with a pTA-Luc-PGC-1α plasmid (Addgene) by the same method as described in Experimental Example 1-(1). Here, 10%, 30%, 50%, 70% and 90% ethanol extracts of Chrysanthemum, which were prepared in Example 1-(2), and the hot water extract of Chrysanthemum, which was prepared in Example 1-(5), were treated at 10 μg/mL.
To confirm an effect of increasing an expression level of PGC-1α by treatment of […] (ATCC) with the 95% ethanol extract of Chrysanthemum, the 95% ethanol extract of Chrysanthemum, prepared in Example 1-(2), was treated at 10 or 40 μg/mL by the same method as described in Experimental Example 1-(2).
To confirm an effect of increasing an expression level of PGC-1α by treatment of COS7 cells (ATCC) with 3,5-dicaffeoylquinic acid, the 3,5-dicaffeoylquinic acid obtained in Example 2 was treated at 5, 10, 20, 40 or 60 μg/mL by the same method as described in Experimental Example 1-(2), and the result is shown in FIG. 11.

SIRT1 = SIRT1 luciferase reporter (pTA-Luc-SIRT1 plasmid) in transfected COS7 cells; conditions: treated at 20, 40 or 60 μg/mL (5 to 60 μg/mL tested), **p<0.01, FIG. 10
Experimental: To confirm an effect of increasing an expression level of SIRT1 by treatment of COS7 cells (ATCC) with a Chrysanthemum extract, COS7 cells (ATCC) were transfected with a pTA-Luc-SIRT1 plasmid (Addgene) by the same method as described in Experimental Example 1-(1). Here, the 95% ethanol extract of Chrysanthemum prepared in Example 1-(2) was treated at 20, 30 or 40 μg/mL, and the result is shown in FIG. 4.
To confirm an effect of increasing an expression level of SIRT1 by treatment of COS7 cells (ATCC) with 3,5-dicaffeoylquinic acid, the 3,5-dicaffeoylquinic acid obtained in Example 2 was treated at 5, 10, 20, 40 or 60 μg/mL by the same method as described in Experimental Example 1-(4), and the result is shown in FIG. 10.

atrogin-1 = atrogin-1 mRNA expression (RT-PCR) in TNF-α-treated L6 myotubes; conditions: 50 ng/mL TNF-α, 1 or 10 μg/mL, 6 hours
Experimental: (§1) L6 myoblasts (ATCC), which are muscle cells, were added at 1×10^5 cell/mL to a 6-well plate with 10% FBS (Gibco)-containing DMEM (Hyclone). When the cell density reached approximately 80 to 85%, the medium in the well was removed, the cells were treated with 2% HS (Hyclone)-containing DMEM (Hyclone) to induce myotube differentiation. The differentiation was performed for total of 6 days by replacing the medium and a sample with fresh ones every two days. After differentiation, the 30% ethanol extract of Chrysanthemum prepared in Example 1-(2) was dissolved in DMEM (Hyclone) containing 50 ng/mL tumor necrosis factor alpha (TNF-α; PeproTech, Rocky Hills, N.J., USA) at 1 or 10 μg/mL, and used to treat the cells. After 6 hours, total RNA was isolated with a TRIzol reagent (Takara, Shiga, Japan). The isolated total RNA was quantified using a NanoDrop 1000 (Thermo Fisher Scientific Inc.). cDNA was synthesized from 16 μL of the quantified RNA using a Reverse Transcriptase Premix (ELPIS-Biotech, Daejeon, Korea) and a PCR machine (Gene Amp PCR System 2700; Applied Biosystems, Foster City, Calif., USA) under conditions of 42° C. for 55 minutes and 70° C. for 15 minutes. […]

MuRF-1 = MuRF-1 mRNA expression (RT-PCR) in TNF-α-treated L6 myotubes; conditions: 50 ng/mL TNF-α, 1 or 10 μg/mL, 6 hours
Experimental: as §1

p-mTOR = p-mTOR protein expression (western blot) in TNF-α-treated L6 myotubes; conditions: 1 or 10 μg/mL, 24 hours
Experimental: To confirm the muscle protein expression-increasing activity of a Chrysanthemum extract in L6 myoblasts (ATCC), which are muscle cells, after differentiation by the same method as described in Experimental Example 2, a sample was treated with the 30% ethanol extract of Chrysanthemum prepared in Example 1-(2) at 1 or 10 μg/mL. The samples were treated for 24 hours, and then the cells were dissolved in an NP-40 buffer solution (ELPIS-Biotech) containing a proteinase inhibitor cocktail (Sigma, St. Louis, Mo., USA). The cells dissolved in the buffer solution were transferred to a 1.5 mL tube for centrifugation at 13,000 rpm for 10 minutes, and then only a supernatant was taken. The supernatant obtained previously was quantified by a Bradford method (Bio-Rad Laboratories Inc., Hercules, Calif., USA). The quantified protein was boiled for 5 minutes and isolated by electrophoresis with a 10% SDS-PAGE gel, and then the isolated proteins were transferred to a nitrocellulose membrane. p-mTOR, mTOR, p-4EBP1, 4EBP1, p-P70S6K and P70S6K and an α-tubulin primary antibody were diluted in 2.5% bovine serum albumin (BSA; bioWORLD, Dublin, Ohio, USA) at a ratio of 1:1000, and the proteins which were transferred to a nitrocellulose membrane were reacted at room temperature for 20 hours. […]

MyoD = MyoD mRNA expression (RT-PCR) during L6 myotube differentiation; conditions: L6 muscle cells, 10, 20 or 40 μg/mL during differentiation, FIG. 14
Experimental: (§2) To confirm the muscle differentiation-promoting activity of a Chrysanthemum extract in L6 myoblasts (ATCC), which are muscle cells, the cells were treated with the 30% ethanol extract of Chrysanthemum, prepared in Example 1-(2), at 5, 10 or 20 μg/mL to induced myotube differentiation by the same method as described in Experimental Example 1-(6). RT-PCR was performed with specific primers (Bioneer) by the same method as described in Experimental Example 2, and the result is shown in FIG. 9.
(§3) To confirm muscle protein synthesis-promoting activity by treatment of L6 myoblasts (ATCC), which are muscle cells, with 3,5-dicaffeoylquinic acid, the cells were treated with the 3,5-dicaffeoylquinic acid obtained in Example 2 at 10, 20 or 40 μg/mL, and then mRNA expression levels of MyoD and myogenin were confirmed by the same method as described in Experimental Example 4.

myogenin = myogenin mRNA expression (RT-PCR) during L6 myotube differentiation; conditions: L6 muscle cells, 10, 20 or 40 μg/mL during differentiation, FIG. 14
Experimental: as §2, §3

In the case of `O=C(/C=C/c1ccc(O)c(O)c1)O[C@@H]1CC(O)(C(=O)O)C[C@@H](OC(=O)/C=C/c2ccc(O)c(O)c2)C1O` (stereo partly drawn) [3,5-dicaffeoylquinic acid, (3R,5R)-3,5-bis[[(E)-3-(3,4-dihydroxyphenyl)prop-2-enoyl]oxy]-1,4-dihydroxycyclohexane-1-carboxylic acid], the “expression level of PGC-1α” value (PGC-1α) is reported as “significantly increased”, the “expression level of SIRT1” value (SIRT1) is reported as “significantly increased” and the “mRNA expression level of atrogin-1 increased by TNF-α” value (atrogin-1) is reported as “decreased in a concentration dependent manner”. The “mRNA expression level of MuRF-1 increased by TNF-α” value (MuRF-1) was “decreased in a concentration dependent manner”, the “p-mTOR protein expression level reduced by TNF-α” value (p-mTOR) was “increased in a concentration-dependent manner” and the “mRNA expression level of MyoD” value (MyoD) was “increased in a concentration-dependent manner”. For the same molecule, the “mRNA expression level of myogenin” value (myogenin) was “increased in a concentration-dependent manner”.

From patent publication US20210401916A1, “COMPOSITION FOR PREVENTION AND TREATMENT OF MUSCULAR DISEASES OR FOR IMPROVEMENT OF MUSCLE FUNCTION CONTAINING 3,5-DICAFFEOYLQUINIC ACID OR CHRYSANTHEMUM EXTRACT” (Industry-Academic Cooperation Foundation, Yonsei University, priority 2016, published 2021)
